What was measured:
Format in all cases: cell-based
[1] = tested on: Hep3B cells; assay: Drug interaction (combination) in Hep3B cell proliferation
Experimental: FIGS. 41A-41B show drug interaction effect of Compound I-32 (FIG. 41A) and Compound I-1 (FIG. 41B) in combination with regorafenib in Hep3B cell proliferation. In FIG. 41A, “1+0.015 (μM)” means 1 μM Compound I-32+0.015 μM regorafenib, etc. In FIG. 41B, “1+0.015 (μM)” means 1 μM Compound I-1+0.015 μM regorafenib, etc.
In FIG. 44A, “1+0.03 (μM)” means 1 μM Compound I-1+0.03 μM sorafenib, etc. […] In FIG. 44B, “1+0.005 (μM)” means 1 μM Compound I-1+0.005 μM lenvatinib, etc. […] In FIG. 44C, “1+0.03 (μM)” means 1 μM Compound I-32+0.03 μM sorafenib, etc. […] In FIG. 44D, “1+0.005 (μM)” means 1 μM Compound I-32+0.005 μM lenvatinib, etc.

[2] = tested on: Hep3B human hepatocarcinoma cells; assay: Cell proliferation assay (presto blue, 72 h); settings: for Hep3B cell proliferation compared to control, compound alone: 100 μM; for Hep3B cell proliferation compared to control, compound alone / IC50 / inhibition of Hep3B cell proliferation in combination with lenvatinib vs each agent alone / inhibition of Hep3B cell proliferation in combination with regorafenib vs individual effects / inhibition of Hep3B cell proliferation in combination with sorafenib vs each agent alone: 72 h; for IC50: Homo sapiens, Hep3B, read-out: Hep3B (IC50), anti-proliferation activity; for inhibition of Hep3B cell proliferation in combination with lenvatinib vs each agent alone: compound 100 μM + lenvatinib 0.5 μM; for inhibition of Hep3B cell proliferation in combination with regorafenib vs individual effects: compound 100 μM + regorafenib 1.5 μM; for inhibition of Hep3B cell proliferation in combination with sorafenib vs each agent alone: compound 100 μM + sorafenib 3 μM
Experimental: Cell cultures. Hep3B (ATCC) and Hepa1-6 (ATCC) cells were seeded in 96-well plates at a density of 3000 cells/well with complete media. On day 2, media in each well was aspirated and replaced with 100 μl of fresh complete media and cells were treated with or without Compound I-1, Compound I-32, Compound I1-84, and Compound I-85, in a concentration dependent manner. Then, cells were incubated in an incubator for 72 h. On day 5, 10 μl of presto blue (Invitrogen, cat #A13261) cell viability reagent was added in each 96-well plate and incubated at 37° C. for 1-2 h. After incubation, fluorescence was measured with an excitation/emission wavelength of 560/590 nm.
Proliferation assay. Hep3B (ATCC) and Hepa1-6 (ATCC) cells were seeded in 96-well plates at a density of 3000 cells/well with complete media. On day 2, media in each well was aspirated and replaced with 100 μl of fresh complete media and cells were treated with/without testing compounds in a concentration dependent manner. Then, cells were incubated in an incubator for 72 h. On day 5, 10 μl of presto blue (Invitrogen, cat #A13261) cell viability reagent was added in each 96-well plate and incubated at 37° C. for 1-2 h. After incubation, fluorescence was measured with an excitation/emission wavelength of 560/590 nm. Anti-proliferative combination effects of Compound I-1 or Compound I-32 and regorafenib were determined in Hep3B and Hepa1-6 cells. Drug combination interaction was determined by the Chou-Talalay method (23), which is based on well-known equations for different reaction sequences and mechanisms, and different types of inhibition. These equations provide the theoretical basis for the combination index (CI)-isobologram equation that allows quantitative determination of drug interactions, where CI<1, =1, and >1 indicate synergism, additive effect, and antagonism, respectively. CI is calculated based on in vitro measurements implemented in the Compusyn software (www.combosyn.com), a platform for drug combinations pharmacodynamics with automated simulations. The software calculates CI based on the Fractional Inhibition (Fa), which is the potency expressed by the average effect values for each drug concentrations as determined by in vitro experiments. The dose-effect data entries are utilized for automated computerized analysis by the Compusyn software.
Data entered was obtained by in vitro experiments performed as follows: Hep3B or Hepa 1-6 cells were plated in a 96-well format and cell proliferation rates were determined as described above. Cells were treated with 5 doses of each test agent alone at the following concentrations: compounds of the invention dosed at 1, 5, 10, 50, or 100 μM for both Hep3B and Hepa1-6 cells, regorafenib dosed at 0.015, 0.075, 0.15, 0.75, and 1.5 μM for Hep3B cells or 0.05, 0.25, 0.5, 2.5, 5 μM for Hepa 1-6 cells. […]. Data are shown as Fa-CI plots where CI is the combination index and Fa is fractional inhibition. Results were indicated as mean±standard deviation (SD). All bar diagrams and line graphs were prepared using Graph Pad Prism 8 software. Drug synergy was calculated using the CompuSyn software.
Methods: Hep3B cells (supplied by ATCC) and Hepa1-6 cells (supplied by ATCC) were seeded in 96-well plates at a density of 3000 cells/well with complete media. On day 2, the media in each well was aspirated and replaced with 100 μL of fresh complete media, and the cells were treated in a concentration dependent manner with either Compound I-1, Compound I-32, Compound I-84, Compound I-85, sorafenib, lenvatinib, Compound I-1 in combination with sorafenib. Compound I-1 in combination with lenvatinib, Compound I-32 in combination with sorafenib, or Compound I-32 in combination with lenvatinib. The cells were then incubated in an incubator at 37° C. for 72 h. On day 5, 10 μL of presto blue (Invitrogen, cat #A13261) cell viability reagent was added to each 96-well plate and incubated at 37° C. for 1-2 h. […]

[3] = tested on: expanded HSPC / megakaryocytes; assay: Platelet production from expanded HSPC cultured into megakaryocytes; settings: added to expanded HSPC at day 0 or day 6, cultured into megakaryocytes for 8 days
Experimental: Compound I-32 (A) and Compound I-1 (B) were added to expanded HSPC at day 0 (FIGS. 25A-25E) as they were cultured into megakaryocytes for 8 days or at day 6 (FIGS. 25F-25J). CD41a cell count (FIG. 25A), CD41aCd42b+ cell count (FIG. 25B), platelet levels (FIG. 25C), CD41a MFI (FIG. 25D) and CD41a FSC cell size (FIG. 25E) were analyzed at day 0. CD41a cell count (FIG. 25F), CD41aCd42b+ cell count (FIG. 25G), platelet levels (FIG. 25H), CD41a MFI (FIG. 25I) and CD41a FSC cell size (FIG. 25J) were analyzed at day 6.

Compound	drug interaction effect in combination with sorafenib ([1]; at all tested concentrations)	drug interaction effect in combination with lenvatinib ([1]; at various concentrations)	Hep3B cell proliferation compared to control, compound alone [2]	IC50 [2] [µM]	synergism with sorafenib (CI), Hep3B cells ([2]; all tested concentrations: 1 μM and 0.05 μM, 5 μM and 0.15 μM, 10 μM and 0.3 μM, 50 μM and 1.5 μM, 100 μM and 3 μM)	synergism with lenvatinib (CompuSyn CI), Hep3B cells ([2]; compound 5 μM and lenvatinib 0.025 μM)	inhibition of Hep3B cell proliferation in combination with lenvatinib vs each agent alone [2]	inhibition of Hep3B cell proliferation in combination with regorafenib vs individual effects [2]	inhibition of Hep3B cell proliferation in combination with sorafenib vs each agent alone [2]	synergism with lenvatinib (CompuSyn CI), Hep3B cells ([2]; compound and lenvatinib: 1 μM and 0.005 μM, 10 μM and 0.05 μM, 50 μM and 0.25 μM, 100 μM and 0.5 μM)	platelet production [3]	drug interaction effect in combination with sorafenib ([1]; at various concentrations)	synergism with sorafenib (CompuSyn CI), Hep3B cells ([2]; compound 5 μM and sorafenib 0.15 μM)	synergism with lenvatinib (CompuSyn CI), Hep3B cells ([2]; compound 10 μM and lenvatinib 0.05 μM)	synergism with lenvatinib (CompuSyn CI), Hep3B cells ([2]; compound and lenvatinib: 50 μM and 0.25 μM, 100 μM and 0.5 μM)	synergism with sorafenib (CompuSyn CI), Hep3B cells ([2]; compound and sorafenib: 1 μM and 0.03 μM, 50 μM and 1.5 μM, 100 μM and 3 μM)
CC(C)(CCCCc1cccc(CCCCC(C)(C)C(=O)O)c1)C(=O)O [Compound I-32, 6-[3-(5-carboxy-5-methylhexyl)-phenyl]-2,2-dimethylhexanoic acid]	synergism	synergism	inhibited Hep3B cell proliferation compared to control	> 100	synergism	Modest synergism	significantly greater inhibition of Hep3B cell proliferation	greater inhibition of cell proliferation compared to their individual effects	significantly greater inhibition of Hep3B cell proliferation	significant synergism	do not significantly affect					
CC(C)(CCCCc1ccc(CCCCC(C)(C)C(=O)O)cc1)C(=O)O [Compound I-1, 6-[4-(5-carboxy-5-methylhexyl)-phenyl]-2,2-dimethylhexanoic acid]		synergism	inhibited Hep3B cell proliferation compared to control	> 100			significantly greater inhibition of Hep3B cell proliferation	greater inhibition of cell proliferation compared to their individual effects	significantly greater inhibition of Hep3B cell proliferation		do not significantly affect	synergism	Modest synergism	Moderate synergism	significant synergism	significant synergism
